{
  "source": "patent US20220249458A1",
  "about": "“Agonists Of Adiponectin” (BAYER AKTIENGESELLSCHAFT, priority 2019, published 2022)",
  "key": {"[1]": {"molecular_target": "T1, adiponectin receptor 1 (AdipoR1) (Homo sapiens, UniProt Q96A54)", "T1 sequence (Q96A54 1-375)": "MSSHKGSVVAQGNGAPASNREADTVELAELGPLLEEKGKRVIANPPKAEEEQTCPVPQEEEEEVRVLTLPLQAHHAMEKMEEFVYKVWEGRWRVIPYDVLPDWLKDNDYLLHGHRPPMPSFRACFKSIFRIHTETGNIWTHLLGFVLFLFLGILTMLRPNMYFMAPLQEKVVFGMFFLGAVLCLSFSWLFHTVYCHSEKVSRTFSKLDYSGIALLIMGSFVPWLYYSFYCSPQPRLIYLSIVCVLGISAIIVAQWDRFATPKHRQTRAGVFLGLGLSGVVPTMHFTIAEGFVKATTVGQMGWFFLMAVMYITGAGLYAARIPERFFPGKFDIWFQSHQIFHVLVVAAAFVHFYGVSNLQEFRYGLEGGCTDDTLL", "settings": "Dib et al. 2017; cited from earlier work"}, "[2]": {"molecular_target": "T2, adiponectin receptor 2 (AdipoR2) (Homo sapiens, UniProt Q86V24)", "T2 sequence (Q86V24 1-386)": "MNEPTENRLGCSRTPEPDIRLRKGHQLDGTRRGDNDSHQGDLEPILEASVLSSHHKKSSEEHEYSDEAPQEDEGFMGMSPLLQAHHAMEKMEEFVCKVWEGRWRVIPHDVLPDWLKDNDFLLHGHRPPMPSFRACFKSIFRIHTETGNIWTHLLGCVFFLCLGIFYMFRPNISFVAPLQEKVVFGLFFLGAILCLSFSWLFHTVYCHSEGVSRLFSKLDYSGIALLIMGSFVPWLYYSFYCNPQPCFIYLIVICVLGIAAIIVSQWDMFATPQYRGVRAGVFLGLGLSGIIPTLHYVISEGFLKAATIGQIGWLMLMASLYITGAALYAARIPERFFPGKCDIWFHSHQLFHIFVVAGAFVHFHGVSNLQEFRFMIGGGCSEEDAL", "settings": "Dib et al. 2017; cited from earlier work"}, "[3]": {"system": "StAR mRNA in Y-1 cells", "assay": "StAR mRNA induction by ACTH in adrenal cell line Y-1", "assay_type": "cell-based, mouse", "protocol": "(§1) Y-1 cells (epithelial cells of mouse adrenal gland origin) were cultivated in F12-K medium with 10% FBS and 15% donor horse serum. Cells were treated with 10 nM ACTH, and 30 min later the Adipor1/2 agonist AdipoRon was added in a final concentration of 0.1 μM, 1 μM, 10 μM for two and a half hours. Cells were harvested, mRNA isolated and […] and Star mRNA quantified relative to β-actin (Actb) mRNA. Hatched column: vehicle control, grey column: 10 nM ACTH, white columns: 10 nM ACTH+0.1 μM, 1 μM, or 10 μM AdipoRon.\n(§2) ACTH is a hormone of the Hypothalamic-pituitary-adrenal axis and stimulates the expression of Steroidogenic acute regulatory protein (StAR) and […] ([…]), which then can lead to cortisol production and, as a consequence, insulin resistance. Insulin insensitivity is observed in women diagnosed with PCOS. […] EC50 for AdipoRon for this effect is around 10 μM for StAR, and around 0.1 to 1 μM for Cyp11b1, but seems to be saturated at higher concentrations."}, "[4]": {"system": "Cyp11b1 mRNA in Y-1 cells", "assay": "Cyp11b1 mRNA induction by ACTH in adrenal cell line Y-1", "assay_type": "cell-based, mouse", "settings": "for EC50: Mus musculus", "protocol": "as §1, §2"}, "[5]": {"system": "LH", "assay": "LH concentration in plasma of female rats at proestrous", "assay_type": "in vivo, rat", "settings": "female Han-Wistar rats, 50 or 100 mg/kg twice a day for one estrous cycle, d3 proestrous 7 pm", "from_the_text": "For this, the cycle phase of untreated naive female Han-Wistar rats was staged by vaginal smears. Rat plasma was taken at different days and time points of the cycle (d3=proestrous, d4=estrous), and LH in plasma determined by a rat pituitary magnetic bead panel (Milliplex, Cat No RPTMAG-86K). LH peak could be detected at d3 at 7 pm in the afternoon as described previously (Smith et al. 1975). Thus, this time point is well suited for measurement of the effect of AdipoR1 and/or AdipoR2 receptors activation by AdipoRon. […] For this, the cycle phase of untreated naive female Han-Wistar rats was staged by vaginal smears. Rats were treated for one estrous cycle, beginning with metestrous, with 50 mg/kg or 100 mg/kg of Adiporon in a suitable vehicle twice a day. Rat plasma was taken at d3=proestrous at 7 pm, and LH was determined by a rat pituitary magnetic bead panel (Milliplex Cat No RPTMAG-86K)."}, "[6]": {"assay": "Single dose exposure experiment in db/db mice (unbound plasma concentration, LC/MS)", "assay_type": "in vivo", "settings": "100 mg/kg p.o. single dose, adult female db/db mice, 0.5 h, 1 h, 4 h", "protocol": "At t=0, a dose of 50 mg/kg (circle) or 100 mg/kg (squares) was given p.o. to adult female db/db mice. At each time point (0.5 h, 1 h, and 4 h) three mice were killed and the plasma concentration of unbound AdipoRon was determined by LC/MS."}, "[7]": {"system": "Lhcgr mRNA", "assay": "Lhcgr mRNA expression in ovaries of db/db mice", "assay_type": "in vivo", "settings": "50 mg/kg single po dose, 0.5-24 h", "protocol": "(§3) FIGS. 6A and 6B Lhcgr mRNA expression (6A) and Cyp17a1 mRNA expression (6B) in ovaries of untreated db/db mice (black column) or db/db mice treated with 50 mg/kg Adiporon (grey column) is shown (n=3 biological replicates; error bars show SD). Expression of Cyp17a1 and Lhrgr mRNA in ovaries of adult female db/db mice were analyzed for untreated mice or mice treated with 50 mg/kg Adiporon as a single po dose given at t=0 h. At 0.5 h, 1 h, 2 h, 4 h, 24 h, mice were killed, and ovaries were taken, mRNA isolated (Qiagen, RNeasy Mini kit #74106) and mRNA quantified by Q-PCR (ThermoFisher Scientific Assay on demand #Mm00484040_ml for Cyp17a1 and Mm00442931_ml for Lhcgr)."}, "[8]": {"system": "Cyp17a1 mRNA", "assay": "Cyp17a1 mRNA expression in ovaries of db/db mice", "assay_type": "in vivo", "settings": "50 mg/kg single po dose, 0.5-24 h", "protocol": "as §3"}, "[9]": {"system": "steroid synthesis in db/db mice", "assay": "Plasma AUC of testosterone and progesterone in female db/db mice", "assay_type": "in vivo", "settings": "single po dose 50 and 100 mg/kg, significant at 100 mg/kg (p<0.1)", "protocol": "Female db/db mice, which were untreated, or treated with Adiporon at 50 mg/kg and 100 mg/kg with a single po dose, were analysed. Blood was taken at 0.5, 1, 2, 4, and 24 hours, and plasma concentrations of progesterone (ibl/Tecan Order No RE52231, Hamburg) and testosterone (Demeditec Order No DEV9911, Kiel) were determined by commercial ELISAs. Area under the curve (AUC) of total steroids was determined by an algorithm according to Gagnon et al. (1998) by GraphPadPrism software. […] The effects are significant at the higher dosage of AdipoRon of 100 mg/kg after a single application (* t-test AUC versus 100 mg/kg Adiporon (n=5 time points), double sided; p<0.1)."}, "[10]": {"system": "DHEA-induced PCOS Model in rats", "assay": "DHEA-induced PCOS Model in rats", "assay_type": "in vivo, rat", "settings": "60 mg/kg/d DHEA sc 20 days, 50 mg/kg/d Adiporon last 10 days", "from_the_text": "FIG. 8: Plasma testosterone concentration [nM] […] An autostimulation of adiponectin by stimulation of AdipoR1 and/or AdipoR2 has been described before and validates the activity of AdipoRon on the AdipoR1 and/or AdipoR2 receptors (Jardé et al. 2009)."}, "[11]": {"system": "tgLH mice", "assay": "Oral glucose tolerance test in transgenic mice overexpressing LH (tgLH)", "assay_type": "in vivo", "settings": "100 mg/kg/d for four weeks, 2 g/kg glucose after 6 h fasting", "protocol": "9A: Plasma insulin concentration [mg/L] in wt-mice (light grey column) and untreated tgLH mice (dark grey column) or tgLH mice treated with 100 mg/kg Adiporon (black column) is shown. 9B: Insulin concentrations [ng/mL] during OGTT in wt (left diagram) and Adipor1−/−Adipor2−/−tg mice (right diagram) treated with vehicle (open circle) or treated with 100 mg/kg (circle) are shown.\nIncreased LH secretion is causal for the development of PCOS in women, and tgLH overexpression in mice recapitulates the human PCOS phenotype in women. For this experiment, an oral glucose tolerance test was performed in control, transgenic LH overexpressing mice, and tgLH mice treated with Adiporon at 100 mg/kg/d for four weeks. To determine insulin sensitivity, plasma was taken at 15 min after giving an oral glucose gavage of 2 g/kg after fasting of the mice for 6 h in the last two days of the experiment (Andrikopoulos et al. 2008)."}, "[12]": {"system": "wt and Adipor1−/−Adipor2−/− mice", "settings": "FIG. 9B, cited from earlier work"}},
  "note": "Like-named read-outs stand apart in the source and are kept apart here.",
  "data": [
    {"smiles": "COc1ccc(CN2CCN(C(=O)CCNC(=O)c3ccc(C(C)(C)C)cc3)CC2)cc1", "note": "[Compound 112254, 4-(tert-Butyl)-N-(3-(4-(4-methoxybenzyl)piperazin-1-yl)-3-oxopropyl)benzamide]", "values": [
      {"measurement": "binding to AdipoR1", "setting": "[1]", "result": "binds to AdipoR1 and AdipoR2"},
      {"measurement": "binding to AdipoR2", "setting": "[2]", "result": "binds to AdipoR1 and AdipoR2"}
    ]},
    {"smiles": "O=C(COc1ccc(C(=O)c2ccccc2)cc1)NC1CCN(Cc2ccccc2)CC1", "note": "[AdipoRon, 2-(4-Benzoylphenoxy)-N-(1-benzylpiperidin-4-yl)acetamide]", "values": [
      {"measurement": "effect on induction of StAR mRNA by ACTH", "setting": "[3]; 10 nM ACTH + 0.1, 1 or 10 μM", "result": "dose-dependently reduces the induction"},
      {"measurement": "EC50", "setting": "[3]; Mus musculus, 10 nM ACTH, AdipoRon two and a half hours, FIG. 2A, read-out: EC50 for reduction of the induction of StAR by ACTH", "result": "~10000", "unit": "nM"},
      {"measurement": "EC50", "setting": "[4]; Y-1 cell, as restated for FIG. 5 (see FIG. 2), read-out: EC50 value for effects in Y-1 cell", "result": "~100", "unit": "nM"},
      {"measurement": "EC50", "setting": "[4]; Y-1 cells, 10 nM ACTH, AdipoRon two and a half hours, FIG. 2B, seems saturated at higher concentrations, read-out: EC50 for reduction of the induction of Cyp11b1 by ACTH", "result": "100 to 1000", "unit": "nM"},
      {"measurement": "effect on induction of Cyp11b1 mRNA by ACTH", "setting": "[4]; Y-1 cells, 10 nM ACTH + 0.1, 1 or 10 μM", "result": "dose-dependently reduces the induction"},
      {"measurement": "LH concentration in plasma", "setting": "[5]", "result": "dose-dependently reduces the induction of LH"},
      {"measurement": "plasma concentration of unbound AdipoRon versus EC50", "setting": "[6]", "result": "reaches the EC50 value"},
      {"measurement": "Lhcgr (LH receptor) mRNA expression in ovaries", "setting": "[7]", "result": "decreases the expression"},
      {"measurement": "Cyp17a1 mRNA expression in ovaries", "setting": "[8]", "result": "decreases the expression"},
      {"measurement": "plasma AUC of progesterone", "setting": "[9]", "result": "increases Progesterone plasma concentration"},
      {"measurement": "plasma AUC of testosterone", "setting": "[9]", "result": "reduces Testosterone plasma concentration"},
      {"measurement": "plasma adiponectin concentration", "setting": "[10]", "result": "normalizes plasma adiponectin"},
      {"measurement": "Plasma testosterone concentration", "setting": "[10]; p<0.05", "result": "significantly reduces the increase in Testosterone"},
      {"measurement": "insulin sensitivity (plasma insulin 15 min after oral glucose)", "setting": "[11]", "result": "insulin sensitivity is increased"},
      {"measurement": "Insulin concentrations during OGTT, Adipor1−/−Adipor2−/− mice", "setting": "[12]; mice double negative for Adiponectin Receptors 1 and 2, 100 mg/kg", "result": "no effect on plasma insulin"},
      {"measurement": "Insulin concentrations during OGTT, wild-type mice", "setting": "[12]; wt mice, 100 mg/kg", "result": "comparable data"}
    ]}
  ]
}
